Data as given in the NIST ThermoML archive (doi:10.1016/j.jct.2010.04.018).

Test: cn = amount concentration of the nth substance listed, in mol/dm3
Details: 101 kPa, Liquid; for speed of sound: Sing-around technique in a fixed-path interferometer; for mass density: Vibrating tube method

Oc1ccc(O)cc1 [1,4-benzenediol] + O
Details | mass density, 283.15 K [kg/m3] | mass density, 293.15 K [kg/m3] | mass density, 298.15 K [kg/m3] | mass density, 303.15 K [kg/m3] | mass density, 313.15 K [kg/m3] | speed of sound, 283.15 K [m/s] | speed of sound, 293.15 K [m/s] | speed of sound, 298.15 K [m/s] | speed of sound, 303.15 K [m/s] | speed of sound, 313.15 K [m/s]
c1 = 0.011 | 1000 | 998.494 | 997.334 | 995.934 | 992.505 | 1448.2 | 1482.6 | 1496.9 | 1509.3 | 1529
c1 = 0.0342 | 1000.53 | 999.001 | 997.84 | 996.428 | 992.992 | 1449.2 | 1483.3 | 1497.5 | 1509.9 | 1529.4
c1 = 0.0554 | 1001.02 | 999.463 | 998.3 | 996.878 | 993.436 | 1450 | 1483.9 | 1498.1 | 1510.3 | 1529.8
c1 = 0.1035 | 1002.11 | 1000.5 | 999.338 | 997.892 | 994.437 | 1451.9 | 1485.2 | 1499.3 | 1511.5 | 1530.6
c1 = 0.201 | 1004.28 | 1002.58 | 1001.41 | 999.925 | 996.443 | 1455.5 | 1487.6 | 1501.8 | 1513.7 | 1532.2
c1 = 0.2996 | 1006.44 | 1004.65 | 1003.48 | 1001.95 | 998.439 | 1458.9 | 1489.8 | 1504.1 | 1515.7 | 1533.7
c1 = 0.4022 | 1008.64 | 1006.75 | 1005.59 | 1004.02 | 1000.49 | 1462.2 | 1492 | 1506.4 | 1517.8 | 1535.2

O [water] + Oc1ccccc1O
c2 = 0
Details | mass density [kg/m3] | speed of sound [m/s]
283.15 K | 999.749 | –
293.15 K | 998.252 | –
313.15 K | 992.273 | 1528.8
